Assay results: patent EP4806449A1, “ANTIVIRAL FOOD PRODUCT” (Creaciones Aromáticas Industriales, S.A., priority 2023, dated 2025)
≈ marks a conversion by molar mass, not a printed value.

Columns and labels:
human coronavirus 229E [1] = test: microbe, parasite or virus in culture; conditions: MRC5
Description: (§4) In this study, the ability of the product object of the invention to inhibit the infectivity of human coronavirus 229E was determined. To that end, different concentrations of grape extract were incubated together with a defined concentration of the virus of interest for 30 minutes. Exposure of host cells to the virus causes the virus to replicate within the cells, which produces a cytopathic effect on the cells that is quantified by means of a cell viability assay after 5 days of exposure.
(§5) The MRC-5 cell line (lung-derived fibroblasts) from the American Type Culture Collection (ATCC) (CCL-171) was used. […]
(§6) A stock solution of the test substance was prepared in dimethyl sulfoxide (DMSO) at 100 mg/ml. […] Next, 0.25 ml of each dilution were mixed with 0.25 ml of a 229E inoculum diluted in 2% FBS EMEM medium, with the inoculum at an infectious concentration of 1000 TCID50/ml and the maximum concentration of the extract at 1 mg/ml (concentration range analysed in the medium: 7.81-1000 µg/ml). […]
(§7) To that end, a stock solution of the test substance was prepared in dimethyl sulfoxide (DMSO) at 50 mg/ml. […] Next, 0.25 ml of each dilution were mixed with 0.25 ml of a 229E inoculum diluted in 2% FBS EMEM medium, with the inoculum at an infectious concentration of 1000 TCID50/ml and the maximum concentration of the extract at 1 mg/ml (concentration range analysed in the medium: 0.78125 µg/ml - 100 µg/ml). […]

MRC-5 cells = test: Toxicity controls without virus (MTT cell viability); assay type: cell-based; conditions: MRC-5 cells without 229E virus; 4.5h treatment; MTT after 5 days
Description: (§1) The MRC-5 cell line (lung-derived fibroblasts) from the American Type Culture Collection (ATCC) (CCL-171) was used. Cells were kept at 37°C and 5% CO2 in Eagle minimum essential medium (EMEM) supplemented with 10% foetal bovine serum (FBS) and antibiotics, trypsinising every 3-4 days, before reaching 90% confluence. Coronavirus 229E was obtained from the ATCC (VR-740) and amplified in MRC-5 cells, according to the ATCC protocol.
(§2) In both experiments, 5 days post-infection, differences in cell viability associated with the cytopathic effect of the virus or toxicity of the treatments were analysed by means of the MTT assay. The MTT assay is a colorimetric assay that measures the activity of enzymes that transform the MTT (methylthiazolyldiphenyl-tetrazolium bromide) molecule to formazan, purple in colour. Briefly, the medium was aspirated from the wells and 0.1 ml of 1 mg/ml MTT solution in EMEM was added to each well, and incubated at 37°C for 2 hours. Next, the MTT solution was aspirated, formazan crystals were dissolved in 0.1 ml of DMSO and absorbance was read at 570 nm (reference 660 nm). The mean absorbance values of the uninfected controls was considered to be 100% cell viability.
(§3) In order to evaluate the results, the following variables were calculated: • CC50: Half maximal cytotoxic concentration, which is the concentration of the compound of interest causing 50% toxicity. […]

[2] = as above; assay type: cell-based; conditions: human; MRC-5 cells without 229E virus; 4.5h treatment; MTT after 5 days
Description: as §1, §2, §3

human coronavirus 229E [3] = conditions: positive control, dose range 0.06-264 µg/ml
Description: as §4, §5, §6, §7

CCN(CC)CCCC(C)Nc1ccnc2cc(Cl)ccc12 (stereo not shown) [Chloroquine, chloroquine]
EC50 (human coronavirus 229E [1]): 5.96 µg/mL (≈ 18.6 µM) | CC50 (MRC-5 cells): >264 µg/mL | CC50 at 4.5 h [2]: > 264 µg/mL | clear antiviral effect starting from (human coronavirus 229E [3]): ≥ 16.5 µg/mL
